Consider 14 compounds from patent publication US20240246945A1, “NOVEL COMPOUND FOR CROP PROTECTANT” (LG CHEM, LTD., priority 2010, published 2024).

The assay has as its system Myzus persicae (Sulzer). Nature of the assay: Insecticidal Activity Test 2 against Myzus persicae (Sulzer), foliar spray on potted peppers, approximately 25 ppm. The conditions noted are these: in Capsicum, 120 h, approximately 25 ppm drug solution in water, counted on day 5 after spraying, read-out: mortality rate rating. The assay is classed as in vivo. From the text:
Insecticidal Activity Test 2 Against Myzus persicae (Sulzer)
Peppers were planted in plastic pots with a diameter of 8 cm and a height of 8 cm, Myzus persicae (Sulzer) was reproduced therein, and then the number of Myzus persicae (Sulzer) in each pot was investigated. Some of the compounds prepared in the examples were selected, the compound was dispersed in water to be diluted to approximately 25 ppm, thereby preparing a drug solution.
The drug solution was sprayed onto the foliage of the peppers planted in the pots and air-dried, and the pots were stored in a green house.
On day 5 after the drug spraying, the number of Myzus persicae (Sulzer) parasitic on each pepper was counted, a mortality rate was calculated from the following formula, and the rating of each compound was investigated.
[formula] • A rating: 90% to 100% mortality • B rating: 80% or more and less than 90% mortality • C rating: less than 80% mortality
Consider `CCN(C(=O)c1cnc(-c2noc(C(F)F)n2)n1C)c1cccnc1` [Ia-1-1-2, 2-(5-(difluoromethyl)-1,2,4-oxadiazol-3-yl)-N-ethyl-1-methyl-N-(pyridin-3-yl)-1H-imidazole-5-carboxamide], for which the mortality at 25 µg/mL is 90 to 100%.

In the case of `CCN(C(=O)c1cnc(-c2noc(C(C)(C)C)n2)n1C)c1cccnc1` [Ia-1-1-5, 2-(5-(tert-butyl)-1,2,4-oxadiazol-3-yl)-N-ethyl-1-methyl-N-(pyridin-3-yl)-1H-imidazole-5-carboxamide], the mortality at 25 µg/mL was in the range of 90 to 100%.

For the compound `CCN(C(=O)c1cnc(-c2noc(C(C)C)n2)n1C)c1cccnc1` [Ia-1-1-6, N-ethyl-2-(5-isopropyl-1,2,4-oxadiazol-3-yl)-1-methyl-N-(pyridin-3-yl)-1H-imidazole-5-carboxamide], the mortality at 25 µg/mL fell in the range of 90 to 100%.

For `CCCc1nc(-c2ncc(C(=O)N(CC)c3cccnc3)n2C)no1` [Ia-1-1-7, N-ethyl-1-methyl-2-(5-propyl-1,2,4-oxadiazol-3-yl)-N-(pyridin-3-yl)-1H-imidazole-5-carboxamide], the mortality at 25 µg/mL is 90 to 100%.

On to `CCN(C(=O)c1cnc(-c2noc(CC3CC3)n2)n1C)c1cccnc1` [Ia-1-1-16, 2-(5-(cyclopropylmethyl)-1,2,4-oxadiazol-3-yl)-N-ethyl-1-methyl-N-(pyridin-3-yl)-1H-imidazole-5-carboxamide], for which the mortality at 25 µg/mL lay in the range of 90 to 100%.

On to `CCN(C(=O)c1cnc(-c2noc(-c3ccccc3)n2)n1C)c1cccnc1` [Ia-1-1-21, N-ethyl-1-methyl-2-(5-phenyl-1,2,4-oxadiazol-3-yl)-N-(pyridin-3-yl)-1H-imidazole-5-carboxamide], for which the mortality at 25 µg/mL fell in the range of 90 to 100%.

Turning to `CCN(C(=O)c1cnc(-c2noc(-c3cocn3)n2)n1C)c1cccnc1` [Ia-1-1-22, N-ethyl-1-methyl-2-(5-(oxazol-4-yl)-1,2,4-oxadiazol-3-yl)-N-(pyridin-3-yl)-1H-imidazole-5-carboxamide], the mortality at 25 µg/mL is 90 to 100%.

Take `CCN(C(=O)c1cnc(-c2noc(-c3cnco3)n2)n1C)c1cccnc1` [Ia-1-1-23, N-ethyl-1-methyl-2-(5-(oxazol-5-yl)-1,2,4-oxadiazol-3-yl)-N-(pyridin-3-yl)-1H-imidazole-5-carboxamide]: the mortality at 25 µg/mL lay in the range of 90 to 100%.

Consider `CCN(C(=O)c1cnc(-c2noc(-c3ccccc3F)n2)n1C)c1cccnc1` [Ia-1-1-24, N-ethyl-1-methyl-2-(5-(2-fluorophenyl)-1,2,4-oxadiazol-3-yl)-N-(pyridin-3-yl)-1H-imidazole-5-carboxamide], for which the mortality at 25 µg/mL lay within 90 to 100%.

In the case of `CCN(C(=O)c1cnc(-c2noc(-c3cccnc3)n2)n1C)c1cccnc1` [Ia-1-1-30, N-ethyl-1-methyl-N-(pyridin-3-yl)-2-(5-(pyridin-3-yl)-1,2,4-oxadiazol-3-yl)-1H-imidazole-5-carboxamide], the mortality at 25 µg/mL fell in the range of 90 to 100%.

On to `CCN(C(=O)c1cnc(-c2noc(-c3ccncc3)n2)n1C)c1cccnc1` [Ia-1-1-31, N-ethyl-1-methyl-N-(pyridin-3-yl)-2-(5-(pyridin-4-yl)-1,2,4-oxadiazol-3-yl)-1H-imidazole-5-carboxamide], for which the mortality at 25 µg/mL was 90 to 100%.

`CCN(C(=O)c1cnc(-c2noc(NC(C)C)n2)n1C)c1cccnc1` [Ia-1-1-33, N-ethyl-2-(5-(isopropylamino)-1,2,4-oxadiazol-3-yl)-1-methyl-N-(pyridin-3-yl)-1H-imidazole-5-carboxamide]: the mortality at 25 µg/mL fell in the range of 90 to 100%.

In the case of `CCNc1nc(-c2ncc(C(=O)N(CC)c3cccnc3)n2C)no1` [Ia-1-1-35, N-ethyl-2-(5-(ethylamino)-1,2,4-oxadiazol-3-yl)-1-methyl-N-(pyridin-3-yl)-1H-imidazole-5-carboxamide], the mortality at 25 µg/mL lay within 90 to 100%.

For the compound `CCN(C(=O)c1cnc(-c2noc(N3CCOCC3)n2)n1C)c1cccnc1` [Ia-1-1-37, N-ethyl-1-methyl-2-(5-morpholino-1,2,4-oxadiazol-3-yl)-N-(pyridin-3-yl)-1H-imidazole-5-carboxamide], the mortality at 25 µg/mL was in the range of 90 to 100%.

Usually mortality stands for the share of the test organisms that died.
